In article PMC12645998, “Optimization of VE607 to generate analogs with improved neutralization activities against SARS-CoV-2 variants” (Journal of Virology, 2025):
pIC50: −log10 of the molar value.

Legend:
[1] = system: SARS CoV-2 D614G Spike pseudovirus; assay type: cell-based
SARS-CoV-2 spike HPM7 = SARS-CoV-2 spike HPM7 (Severe acute respiratory syndrome coronavirus 2, UniProt P0DTC2, A892P/A899P/A942P/F817P/K986P/R682G/R683S/R685S/T883C/V705C/V987P)

| Compound | pIC50 [1] | Particles in closed conformation (3 RBD down) (SARS-CoV-2 spike HPM7) [%] | Particles in open conformation (1 RBD up) (SARS-CoV-2 spike HPM7) [%] |
| --- | --- | --- | --- |
| CCN(C)C[C@@H](O)COc1cc(Br)cc(OC[C@H](O)CN(C)CC)c1 [Compound 33] | 5.94 | – | – |
| CN(C)C[C@@H](O)COc1cc(Br)cc(OC[C@H](O)CN(C)C)c1 [Compound 27] | 6.11 | 16.9 | 68.0 |
| CN1CCN(C[C@@H](O)COc2cc(Br)cc(OC[C@H](O)CN3CCN(C)CC3)c2)CC1 [Compound 30] | 5.88 | – | – |
| O[C@@H](COc1cccc(OC[C@H](O)CN2CCCCC2)c1)CN1CCCCC1 [(R,R)-VE607, reference compound] | 6.18 | – | – |
